Each compound was assayed against T1, recombinant human mPGES-1 (Homo sapiens, UniProt O14684) (assay: Assay A: mPGES-1 enzyme assay (HTRF detection of PGE2)). Conditions: biological assay A; microsomes from E. coli expressing recombinant human mPGES-1; read-out: mPGES-1 inhibitory effect IC50.
T1 construct: made in house; host or cells: Rosetta E. coli (membrane/microsome fraction)
T1 sequence (O14684 1-152): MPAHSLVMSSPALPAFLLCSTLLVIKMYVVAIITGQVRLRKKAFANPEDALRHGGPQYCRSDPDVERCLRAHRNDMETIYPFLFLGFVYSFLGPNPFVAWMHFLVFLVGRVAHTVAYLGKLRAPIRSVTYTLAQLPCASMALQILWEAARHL
Format: biochemical
Text: The aim of this assay is to determine the affinity of a test compound for the mPGES-1 enzyme.
• 1. Riendeau, D., R. Aspiotis, D. Ethier, Y. Gareau, E. Grimm, J. Guay, S. Guiral, H. Juteau, J. Mancini, N. Methot, J. Rubin, and R. Friesen, Inhibitors of the inducible microsomal prostaglandin E2 synthase (mPGES-1) derived from MK-886. Bioorg Med Chem Lett, 2005. 15(14): p. 3352-3355. • 2. Cote, B., L. Boulet, C. Brideau, D. Claveau, D. Ethier, R. Frenette, M. Gagnon, A. Giroux, J. Guay, S. Guiral, J. Mancini, E. Martins, F. Masse, N. Methot, D. Riendeau, J. Rubin, D. Xu, H. Yu, Y. Ducharme, and R. Friesen, Substituted phenanthrene imidazoles as potent, selective, and orally active mPGES-1 inhibitors. Bioorg Med Chem Lett, 2007. 17(24): p. 6816-6820. Assay A: mPGES-1 Enzyme Assay List of Reagents Used: • Glutathione (Sigma, G-4251) • Freeze culture in Rosetta E coli expression strain. • LB growth media with Ampillicillin (Amp) final concentration in culture 50 μg/mL • Chloroamphenicol stock 34 mg/mL (chloro) final concentration in culture 34 μg/mL • Sterile growth flasks for 500 mL-1 liter cultures • 0.1 M KP, buffer pH 7.4 • 9.25% HCl • PGH2 (0.25 mM) • Fe (II) Cl2 tetrahydrate, 99% (Sigma, 220229) • 384-well plate with compounds • 96-well plate, polypropylene (Thermo fast 96 skirted VWR) • 384-well plate polypropylene PCR plate (Greiner 785201) • Greiner 384-well plate pp (In vitro cat. no. 781280) • Adhesive sealing film for 96-well plates (Sigma-Aldrich) • Aluminium foil (PCR foil, 310-0030-127-471 from Labora) • PBS (GIBCO 14040) • Prostaglandin E2 Assay (Cisbio, cat. no. 62P2APEC) • Biomek FX robot (Beckman Coulter) • Biomek NX robot (Beckman Coulter) • Multidrop; micro or combi (ThermoLabsystems) • Plate reader: Safire2 (Tecan)
Microsomes from Rosetta E. coli bacteria expressing recombinant human mPGES-1 can be derived as described below:
Inoculate 5 mL LB with Amp and Chloro with bacteria from freeze culture. Incubate overnight at 37° C. with 200 rpm. Thereafter, inoculate 500-800 mL LB containing Amp and Chloro with the 5 mL on culture and grow to OD640 of 0.6-0.8. Chill the culture to +4° C. before induction. Induce the culture with IPTG at a final concentration of 400 μM. Express the protein at room temp 18-23° C. with 200 rpm shaking overnight.
The following steps can be performed on the following day: • 1. Spin down the cells in 250 mL centrifuge flasks for 15 min at 7000 rpm • 2. Dissolve the pellet from 250 mL culture in 12.5 mL homogenization buffer • 3. Disintegrate the cells by sonication, 4×10 seconds at 35% amplitude • 4. Add 2.5 mL MgCl2 (100 mM) and DNase 12.5 μL (0.8 mg/mL) and incubate on ice for 30 min • 5. Spin down the bacteria debris and save the supernatant, 7000 rpm for 15 min • 6. Isolate the protein containing membranes in the supernatant by ultracentrifugation 45000×g for 1 hour. • 7. Discard the supernatant and dissolve the pellet in 20 mM KPi buffer and aliquot the enzyme and store aliquots at −80° C.
Before each experiment is performed an aliquot of the enzyme is thawed and it can then be dissolved in 0.1 M KP, pH 7.4 buffer containing 2.5 mM GSH. 50 μL of this enzyme solution is subsequently dispensed in a 384-well plate at room temperature. 0.5 μL of the inhibitor dissolved in DMSO is thereafter added to each well and incubated for 25 minutes at room temperature. Subsequently, 2 μL of PGH2 dissolved in an appropriate solvent is added to each well and after one minute at room temperature, the acidified stop solution containing FeCl2 is added. 4 μL of the total volume is transferred to a separate plate and diluted 750-fold in two separate steps before quantification of PGE2.
In order to quantitate the amount of PGE2 that has been formed, a homogenous time resolved fluorescent (HTRF) detection of PGE2 can be performed by the use of a commercially available kit from CisBio essentially according to the manufacturer's protocol. […]
O=C(NCc1ccc(Cl)c(Nc2nc3cc(Cl)c(N4CCC(C(F)(F)F)CC4)cc3[nH]2)c1)C1(C(F)(F)F)CC1 [Example 75] was tested, and the IC50 was 8.7 nM.
Work on Cn1c(Nc2cc(CNC(=O)C3(C(F)(F)F)CC3)ccc2Cl)nc2cc(Cl)c(N3CCC(c4ccccc4)CC3)cc21 [Example 76, N-{4-Chloro-3-[5-chloro-1-methyl-6-(4-phenyl-piperidin-1-yl)-1H-benzimidazol-2-ylamino]-benzyl}-1-trifluoromethyl-cyclopropanamide] yielded an IC50 of 3.1 nM.
COC1CCN(c2cc3c(cc2Cl)nc(Nc2cc(CNC(=O)C4(C(F)(F)F)CC4)ccc2Cl)n3C)CC1 [Example 77] was tested, and the IC50 was 10 nM.
Cn1c(Nc2cc(CNC(=O)C3(C(F)(F)F)CC3)ccc2Cl)nc2cc(Cl)c(N3CCC(C)(C)CC3)cc21 [Example 78] was tested, and the IC50 was 1.7 nM.
Cn1c(Nc2cc(CNC(=O)C3(C(F)(F)F)CC3)ccc2Cl)nc2cc(Cl)c(N3CCC(F)(F)CC3)cc21 [Example 79] was tested, and the IC50 was 2.4 nM.
In the case of CN(C)CCn1c(Nc2cc(CNC(=O)C3(C(F)(F)F)CC3)ccc2Cl)nc2cc(Cl)c(N3CCC(C(F)(F)F)CC3)cc21 [Example 80], the IC50 is reported as 54 nM.
For COCCn1c(Nc2cc(CNC(=O)C3(C(F)(F)F)CC3)ccc2Cl)nc2cc(Cl)c(N3CCC(C(F)(F)F)CC3)cc21 [Example 81], the IC50 was 6.7 nM.
Compound Cn1c(Nc2cc(CNC(=O)C3(C(F)(F)F)CC3)ccc2Cl)nc2cc(C#N)c(N3CCC(C(F)(F)F)CC3)cc21 [Example 82, N-{4-Chloro-3-[5-cyano-1-methyl-6-(4-trifluoromethyl-piperidin-1-yl)-1H-benzimidazol-2-ylamino]-benzyl}-1-trifluoromethyl-cyclopropanamide] has an IC50 of 1.7 nM.
Compound Cn1c(Nc2cc(CNC(=O)C3(C(F)(F)F)CC3)ccc2Cl)nc2cc(Cl)c(N3CCN(c4ccc(C(F)(F)F)cc4)CC3)cc21 [Example 83, N-{4-Chloro-3-[5-chloro-1-methyl-6-(4-(4-trifluoromethylphenyl)-piperazin-1-yl)-1H-benzimidazol-2-ylamino]-benzyl}-1-trifluoromethyl-cyclopropanamide] has an IC50 of 1.3 nM.
Work on Cn1c(Nc2cc(CNC(=O)C3(C(F)(F)F)CC3)ccc2Cl)nc2cc(F)c(N3CCC(C(F)(F)F)CC3)c(F)c21 [Example 84, N-{4-Chloro-3-[5,7-difluoro-1-methyl-6-(4-trifluoromethyl-piperidin-1-yl)-1H-benzimidazol-2-ylamino]-benzyl}-1-trifluoromethyl-cyclopropanamide] yielded an IC50 of 7.3 nM.
Cn1c(Nc2cc(CNC(=O)C3(C(F)(F)F)CC3)ccc2Cl)nc2cc(F)c(N3CCC(C)(C)CC3)c(F)c21 [Example 85] gave an IC50 of 20 nM.
Work on Cn1c(Nc2cc(CNC(=O)C3(C(F)(F)F)CC3)ccc2Cl)nc2cc(F)c(N3CCC(C(F)(F)F)CC3)cc21 [Example 86, N-{4-Chloro-3-[5-fluoro-1-methyl-6-(4-trifluoromethyl-piperidin-1-yl)-1H-benzimidazol-2-ylamino]-benzyl}-1-trifluoromethyl-cyclopropanamide] yielded an IC50 of 7.1 nM.
With Cn1c(Nc2cc(CNC(=O)C3(C(F)(F)F)CC3)ccc2Cl)nc2cc(F)c(N3CCC(C)(C)CC3)cc21 [Example 87] the IC50 was 14 nM.
With O=C(NCc1ccc(Cl)c(Nc2nc3cc(Cl)c(N4CCC(C(F)(F)F)CC4)cc3n2CC2CC2)c1)C1(C(F)(F)F)CC1 [Example 88] the IC50 was 5.3 nM.
Work on O=C(NCc1ccc(Cl)c(Nc2nc3cc(Cl)c(N4CCC(C(F)(F)F)CC4)cc3n2CC(F)(F)F)c1)C1(C(F)(F)F)CC1 [Example 89] yielded an IC50 of 6.1 nM.
In the case of Cn1c(Nc2cc(CNC(=O)C3(C(F)(F)F)CC3)ccc2Cl)nc2cc(Cl)c(N3CCN(c4ccccc4)CC3)cc21 [Example 90], the IC50 is reported as 2.2 nM.
Compound Cn1c(Nc2cc(CNC(=O)C3(C(F)(F)F)CC3)ccc2Cl)nc2cc(Cl)c(N3CCC(c4ccc(F)cc4)CC3)cc21 [Example 91] has an IC50 of 3.6 nM.
Compound N#Cc1c(N2CCCC(C(F)(F)F)C2)ccc2nc(Nc3cc(CNC(=O)C4(C(F)(F)F)CC4)ccc3Cl)[nH]c12 (stereo not drawn) [Example 93, N-{4-Chloro-3-[4-cyano-5-(3-trifluoromethyl-piperidin-1-yl)-1H-benzimidazol-2-ylamino]-benzyl}-1-trifluoromethyl-cyclopropanamide] has an IC50 of 17 nM.
Compound Cn1c(Nc2cc(CNC(=O)C(C)(F)F)ccc2Cl)nc2cc(Cl)c(N3CCC(C(F)(F)F)CC3)cc21 [Example 94, N-{4-Chloro-3-[5-chloro-1-methyl-6-(4-trifluoromethyl-piperidin-1-yl)-1H-benzimidazol-2-ylamino]-benzyl}-2,2-difluoro-propionamide] has an IC50 of 3.5 nM.
With Cn1c(Nc2cc(CNC(=O)C(C)(F)F)ccc2Cl)nc2cc(Cl)c(N3CCC(c4ccccc4)CC3)cc21 [Example 95] the IC50 was 2.1 nM.
Cn1c(Nc2cc(CNC(=O)C(C)(F)F)ccc2Cl)nc2cc(Cl)c(N3CCN(c4ccc(C(F)(F)F)cc4)CC3)cc21 [Example 96] gave an IC50 of 4.1 nM.
With Cn1c(Nc2cc(CNS(=O)(=O)C(C)(C)C)ccc2Cl)nc2cc(Cl)c(N3CCC(C(F)(F)F)CC3)cc21 [Example 99, N-(4-Chloro-3-(5-chloro-1-methyl-6-(4-trifluoromethyl-piperidin-1-yl)-1H-benzo[d]imidazol-2-ylamino)benzyl)-2-methylpropane-2-sulfonamide] the IC50 was 4 nM.
Work on Cn1c(Nc2cc(CNS(=O)(=O)C(C)(C)C)ccc2Cl)nc2cc(Cl)c(N3CCN(c4ccc(C(F)(F)F)cc4)CC3)cc21 [Example 100] yielded an IC50 of 7.7 nM.
Cn1c(Nc2cc(CNC(=O)C3(C(F)(F)F)CC3)ccc2C(F)(F)F)nc2cc(Cl)c(N3CCC(C(F)(F)F)CC3)cc21 [Example 101, N-{4-Trifluoromethyl-3-[5-chloro-1-methyl-6-(4-trifluoromethyl-piperidin-1-yl)-1H-benzimidazol-2-ylamino]-benzyl}-1-trifluoromethyl-cyclopropanamide] was tested, and the IC50 was 2.8 nM.
Cn1c(Nc2cc(CNC(=O)C3CC3)ccc2C(F)(F)F)nc2cc(Cl)c(N3CCC(C(F)(F)F)CC3)cc21 [Example 102] gave an IC50 of 2.4 nM.
In the case of Cn1c(Nc2cc(CNC(=O)c3c(F)cccc3Cl)ccc2C(F)(F)F)nc2cc(Cl)c(N3CCC(C(F)(F)F)CC3)cc21 [Example 103], the IC50 is reported as 2 nM.
For Cn1c(Nc2cc(CNC(=O)C(C)(C)C)ccc2C(F)(F)F)nc2cc(Cl)c(N3CCC(C(F)(F)F)CC3)cc21 [Example 104], the IC50 was 2.4 nM.
CC(C(=O)NCc1ccc(C(F)(F)F)c(Nc2nc3cc(Cl)c(N4CCC(C(F)(F)F)CC4)cc3n2C)c1)C(F)(F)F (stereo not drawn) [Example 105, N-{4-Trifluoromethyl-3-[5-chloro-1-methyl-6-(4-trifluoromethyl-piperidin-1-yl)-1H-benzimidazol-2-ylamino]-benzyl}-3,3,3-trifluoro-2-methyl-propanamide] was tested, and the IC50 was 3.9 nM.
Cn1c(Nc2cc(CNC(=O)C(C)(F)F)ccc2C(F)(F)F)nc2cc(Cl)c(N3CCC(C(F)(F)F)CC3)cc21 [Example 106] was tested, and the IC50 was 5.7 nM.
Cn1c(Nc2cc(CNC(=O)C3(O)CC3)ccc2C(F)(F)F)nc2cc(Cl)c(N3CCC(C(F)(F)F)CC3)cc21 [Example 107] gave an IC50 of 13 nM.
